# In patent publication US4176126A, “Novel corticoids” (Schering Aktiengesellschaft, priority 1976, dated 1979):
# Where two headings read alike, the source gives them in different places.
# Assays:
# [1] = system: skin (stratum corneum stripped, hyperemia); experiment: vasoconstriction test (topical ointment on stripped skin, skin color value); type: in vivo, human volunteers; details: concentration 0.00001%, untreated skin = 100, stripped skin = 0
# Method: The local anti-inflammatory activity of the corticoids can be determined by means of the conventional vasoconstriction test.
# On the backs of persons volunteering for the experiment, the stratum corneum was split up by the application and removal of an adhesive strip having a width of 2 cm. applied twenty times at the same spot, thus producing a pronounced hyperemia. Within the stripped area, 50 mg of an ointment preparation were applied to each one of a number of marked zones of a size of 4 cm^2. The ointment base without active ingredient served as the blank value. The color value of the untreated skin was set at 100 while that of the stripped skin was set at 0. The skin color value under vasoconstriction was correspondingly evaluated between 0 and 100.
# paw edema = experiment: adjuvant-edema test (oral, Mycobacterium butyricum paw edema); type: in vivo, SPF rats; details: Rattus norvegicus, read-out: Adjuvant Edema Test ED50
# Method: Furthermore, the systemic activity was determined with the aid of the adjuvant-edema test as follows:
# SPF rats weighing 130-150 g were injected in the right hind paw with 0.1 ml of a 0.5% Mycobacterium butyricum suspension (obtainable from the U.S. company, Difco), in order to induce a center of inflammation. Prior to injection, the paw volume of the rats was measured. Twenty four hours after injection, the paw volume was measured once again to determine the extent of the edema. Thereafter, varying amounts of the test compound, was administered orally to the rats. After another 24 hours, the paw volume was again determined.
# The control animals were treated in the same way but without any test compound.
# From the thus-obtained paw volumes, the amount of test compound which was required to achieve a 50% reduction the paw edema was conventionally determined. Difluocotolone 21-valerate was also utilized in these tests as the comparison compound.
# thymus = experiment: thymolysis test (oral, adrenalectomized rats, thymus weight); type: in vivo, SPF rats; details: Rattus norvegicus, 72 h, read-out: Thymolysis ED50
# Method: The systemic activity of the compounds of this invention was determined as follows with the aid of the well-known thymolysis test:
# SPF [specific-pathogen free] rats weighing 70- 110 g were adrenalectomized under ether narcosis. Six animals, respectively, formed each test group and received orally over a period of three days a defined amount of the test compound. On the fourth day, the animals were sacrificed and the weight of their thymus determined. The control animals were treated in the same way, but received a benzyl benzoate-castor -castor oil mixture without the test compound. From the thus-measured thymus weights, the amount of test compound at which a 50% thymolysis was observed was conventionally determined.
# [2] = oral, 50% reduction of paw edema, systemic activity
# [3] = oral, three days, 50% thymolysis, adrenalectomized rats, systemic activity
SMILES,Vasoconstriction after 4 Hours [1],Vasoconstriction after 8 Hours [1],ED50 (paw edema; [2]),ED50 (thymus; [3]),ED50 (paw edema; po),ED50 (thymus; po)
"C[C@]12C=CC(=O)C=C1CCC1=C2[C@@H](O)C[C@@]2(C)[C@H]1CC[C@]2(OC(=O)c1ccccc1)C(=O)CCl [V, 17α-Benzoyloxy-21-chloro-11β-hydroxy-1,4,8(9)-pregnatriene-3,20-dione]",52%,64%,1 mg/kg,1 mg/kg,,
"CCCCC(=O)OCC(=O)[C@H]1[C@H](C)C[C@H]2[C@@H]3C[C@H](F)C4=CC(=O)C=C[C@]4(C)[C@@]3(F)[C@@H](O)C[C@@]21C [I, 6α, 9α-difluoro-11β-hydroxy-16α-methyl-21-valeryloxy-1,4-pregnadiene-3,20-dione, reference compound]",33%,36%,,,0.3 mg/kg,0.03 mg/kg
"CCC(=O)O[C@]1(C(=O)CCl)CC[C@H]2C3=C([C@@H](O)C[C@@]21C)[C@@]1(C)C=CC(=O)C=C1CC3 [IV, 21-Chloro-11β-hydroxy-17α-propionyloxy-1,4,8(9)-pregnatriene-3,20-dione]",47%,45%,2 mg/kg,2 mg/kg,,
"CC(=O)O[C@]1(C(=O)CCl)CC[C@H]2C3=C([C@@H](O)C[C@@]21C)[C@@]1(C)C=CC(=O)C=C1CC3 [III, 17α-Acetoxy-21-chloro-11β-hydroxy-1,4,8(9)-pregnatriene-3,20-dione]",42%,42%,3.6 mg/kg,3.6 mg/kg,,
"CC(C)(C)C(=O)OCC(=O)[C@@]1(OC(=O)c2ccccc2)CC[C@H]2C3=C([C@@H](O)C[C@@]21C)[C@@]1(C)C=CC(=O)C=C1CC3 [II, 17α-Benzoyloxy-11β-hydroxy-21-trimethylacetoxy-1,4,8(9)-pregnatriene-3,20-dione]",30%,33%,10 mg/kg,5.5 mg/kg,,
